Our source for the Ki values is ChEMBL document CHEMBL1148396, “Structure-activity relationships of N-acyl pyrroloquinolone PDE-5 inhibitors” (J Med Chem, 2004).

Usually Ki stands for the equilibrium dissociation constant of an inhibitor or competing ligand from its target.

In the experiment the target is cGMP-specific 3',5'-cyclic phosphodiesterase (Homo sapiens, UniProt O76074). In words: Inhibitory activity against human Phosphodiesterase 5.
Take `O=C(Cc1ccccc1)N1Cc2c(nc3ccccc3c2O)C1c1ccc2c(c1)OCO2` (stereo not drawn): the inhibition constant Ki stood at 12.5 nM. This lies in the double-digit nanomolar range.
The same measure for `O=C(OCc1ccccc1)N1Cc2c(nc3ccccc3c2O)C1c1ccc2c(c1)OCO2` (stereo not drawn): 0.58 nM; for `O=C(/C=C/c1ccccc1)N1Cc2c(nc3ccccc3c2O)C1c1ccc2c(c1)OCO2` (stereo not drawn): 0.22 nM.
The same measure for `O=S(=O)(Cc1ccccc1)N1Cc2c(nc3ccccc3c2O)C1c1ccc2c(c1)OCO2` (stereo not drawn): 113 nM.
With `O=C(OCc1ccncc1)N1Cc2c(nc3ccccc3c2O)C1c1ccc2c(c1)OCO2` (stereo not drawn) the figure was 0.29 nM; with `O=C(OCc1ccncc1)N1Cc2c(nc3ccccc3c2O)[C@@H]1c1ccc2c(c1)OCO2`, 3.48 nM; with `O=S(=O)(/C=C/c1ccccc1)N1Cc2c(nc3ccccc3c2O)C1c1ccc2c(c1)OCO2` (stereo not drawn), 118 nM.
`CN(Cc1ccccc1)C(=O)N1Cc2c(nc3ccccc3c2O)C1c1ccc2c(c1)OCO2` (stereo not drawn) yielded an inhibitory constant (Ki) of 11 nM.
In the case of `O=C(NCc1ccccc1)N1Cc2c(nc3ccccc3c2O)C1c1ccc2c(c1)OCO2` (stereo not drawn), the affinity, expressed as Ki, was 1.06 nM. Against the preceding molecule, the Ki is about 10-fold lower.
Regarding `O=C(C#Cc1ccccc1)N1Cc2c(nc3ccccc3c2O)C1c1ccc2c(c1)OCO2` (stereo not drawn), affinity was put at a Ki of 0.35 nM. This Ki lies about 3-fold lower than the previous one.
For the molecule `O=C(CCc1ccccc1)N1Cc2c(nc3ccccc3c2O)C1c1ccc2c(c1)OCO2` (stereo not drawn), the inhibition constant (Ki) was determined as 4.53 nM.
`O=C(OCc1ccncc1)N1Cc2c(nc3ccccc3c2O)[C@H]1c1ccc2c(c1)OCO2` had a Ki of 0.23 nM.
In turn, `Oc1c2c(nc3ccccc13)C(c1ccc3c(c1)OCO3)N(C/C=C/c1ccccc1)C2` (stereo not drawn) had a Ki of 23.3 nM.
